The compounds below were run against T1, HGFR (Homo sapiens, UniProt P08581) (assay: HGFR continuous-coupled spectrophotometric assay). Settings: at 1 μM; Table 8, library procedure 43; read-out: % Inhibition (percent c-MET inhibition).
T1 construct: purchased Upstate 14-526
Assay type: biochemical

T1 sequence (P08581 974-1390 limits assumed): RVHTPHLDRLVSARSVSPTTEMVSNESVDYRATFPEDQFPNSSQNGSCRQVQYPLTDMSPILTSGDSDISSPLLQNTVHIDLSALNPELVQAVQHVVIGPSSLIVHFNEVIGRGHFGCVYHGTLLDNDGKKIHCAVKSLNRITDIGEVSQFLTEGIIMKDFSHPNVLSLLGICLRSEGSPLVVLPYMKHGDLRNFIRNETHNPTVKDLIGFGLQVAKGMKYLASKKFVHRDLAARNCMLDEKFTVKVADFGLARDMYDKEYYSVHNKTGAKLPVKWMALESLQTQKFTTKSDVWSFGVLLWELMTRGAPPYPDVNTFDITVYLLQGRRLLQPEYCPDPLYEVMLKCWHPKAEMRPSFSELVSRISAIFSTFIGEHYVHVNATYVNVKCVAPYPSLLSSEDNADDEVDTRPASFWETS

Row | inhibition at 1 µM | SMILES
1 | 11% | CC1CN(C(=O)c2ccc(-c3cnc(N)c(OCc4nccn4Cc4ccccc4)c3)cc2)CC(C)N1 (stereo not shown)
2 | 13% | CC1CN(C(=O)c2ccc(-c3cnc(N)c(OCc4ccc(C#N)cc4)c3)cc2)CC(C)N1 (stereo not shown)
3 | 11% | CC1CN(C(=O)c2ccc(-c3cnc(N)c(OCc4cccc(C#N)c4)c3)cc2)CC(C)N1 (stereo not shown)
4 | 32% | CC1CN(C(=O)c2ccc(-c3cnc(N)c(OCc4cc(Cl)ccc4Cl)c3)cc2)CC(C)N1 (stereo not shown)
5 | 16% | CC1CN(C(=O)c2ccc(-c3cnc(N)c(OCc4nc(CS(=O)(=O)c5ccccn5)no4)c3)cc2)CC(C)N1 (stereo not shown)
6 | 16% | CC1CN(C(=O)c2ccc(-c3cnc(N)c(OCc4cc(-c5c(Cl)cccc5Cl)no4)c3)cc2)CC(C)N1 (stereo not shown)
7 | 17% | CC1CN(C(=O)c2ccc(-c3cnc(N)c(OCc4cccc(OC(F)(F)F)c4)c3)cc2)CC(C)N1 (stereo not shown)
8 | 7% | Cc1cc(COc2cc(-c3ccc(C(=O)N4CC(C)NC(C)C4)cc3)cnc2N)nc(-c2ccc(C(F)(F)F)cn2)n1 (stereo not shown)
9 | 21% | CC1CN(C(=O)c2ccc(-c3cnc(N)c(OCc4cc(F)ccc4Br)c3)cc2)CC(C)N1 (stereo not shown)
10 | 28% | CC1CN(C(=O)c2ccc(-c3cnc(N)c(OCc4cccc(Cl)c4F)c3)cc2)CC(C)N1 (stereo not shown)
11 | 29% | CC1CN(C(=O)c2ccc(-c3cnc(N)c(OCc4ccc(Cl)c(Cl)c4)c3)cc2)CC(C)N1 (stereo not shown)
12 | 20% | CC1CN(C(=O)c2ccc(-c3cnc(N)c(OCc4cc(F)c(F)cc4F)c3)cc2)CC(C)N1 (stereo not shown)
13 | 25% | CC1CN(C(=O)c2ccc(-c3cnc(N)c(OCc4ccc(F)c(F)c4F)c3)cc2)CC(C)N1 (stereo not shown)
14 | 22% | CC1CN(C(=O)c2ccc(-c3cnc(N)c(OCc4ccc(C(F)(F)F)cc4C(F)(F)F)c3)cc2)CC(C)N1 (stereo not shown)
15 | 41% | CC1CN(C(=O)c2ccc(-c3cnc(N)c(OCc4c(F)ccc(F)c4F)c3)cc2)CC(C)N1 (stereo not shown)
16 | 28% | Cc1cccc(COc2cc(-c3ccc(C(=O)N4CC(C)NC(C)C4)cc3)cnc2N)c1F (stereo not shown)
17 | 17% | CC1CN(C(=O)c2ccc(-c3cnc(N)c(OCc4ccc(-c5csnn5)cc4)c3)cc2)CC(C)N1 (stereo not shown)
18 | 19% | CC1CN(C(=O)c2ccc(-c3cnc(N)c(OCc4cc(F)cc(C(F)(F)F)c4)c3)cc2)CC(C)N1 (stereo not shown)
19 | 33% | CC1CN(C(=O)c2ccc(-c3cnc(N)c(OCc4c(F)cccc4C(F)(F)F)c3)cc2)CC(C)N1 (stereo not shown)
20 | 11% | CC1CN(C(=O)c2ccc(-c3cnc(N)c(OCc4cc(F)c(F)c(F)c4)c3)cc2)CC(C)N1 (stereo not shown)

Row | inhibition at 1 µM | SMILES
21 | 24% | CC1CN(C(=O)c2ccc(-c3cnc(N)c(OCc4ccccc4OC(F)F)c3)cc2)CC(C)N1 (stereo not shown)
22 | 24% | CC1CN(C(=O)c2ccc(-c3cnc(N)c(OCc4ccc(C(F)(F)F)cc4F)c3)cc2)CC(C)N1 (stereo not shown)
23 | 29% | CC1CN(C(=O)c2ccc(-c3cnc(N)c(OCc4ccc(Br)cc4F)c3)cc2)CC(C)N1 (stereo not shown)
24 | 42% | CC1CN(C(=O)c2ccc(-c3cnc(N)c(OCc4cc(Br)cc(Br)c4)c3)cc2)CC(C)N1 (stereo not shown)
25 | 73% | CC1CN(C(=O)c2ccc(-c3cnc(N)c(OCc4ccc(-c5ccccc5C#N)cc4)c3)cc2)CC(C)N1 (stereo not shown)
26 | 19% | CC1CN(C(=O)c2ccc(-c3cnc(N)c(OCc4cccc(F)c4F)c3)cc2)CC(C)N1 (stereo not shown)
27 | 17% | CC1CN(C(=O)c2ccc(-c3cnc(N)c(OCc4ncc(C(F)(F)F)cc4Cl)c3)cc2)CC(C)N1 (stereo not shown)
28 | 14% | Cc1noc(C)c1-c1nc(COc2cc(-c3ccc(C(=O)N4CC(C)NC(C)C4)cc3)cnc2N)no1 (stereo not shown)
29 | 9% | COc1ccccc1-c1nc(COc2cc(-c3ccc(C(=O)N4CC(C)NC(C)C4)cc3)cnc2N)no1 (stereo not shown)
30 | 30% | CC1CN(C(=O)c2ccc(-c3cnc(N)c(OCc4noc(-c5cccc(C(F)(F)F)c5)n4)c3)cc2)CC(C)N1 (stereo not shown)
31 | 6% | CC1CN(C(=O)c2ccc(-c3cnc(N)c(OCc4nsc(Cl)n4)c3)cc2)CC(C)N1 (stereo not shown)
32 | 26% | CC1CN(C(=O)c2ccc(-c3cnc(N)c(OCc4cc(Cl)cc(Cl)c4)c3)cc2)CC(C)N1 (stereo not shown)
33 | 32% | CC1CN(C(=O)c2ccc(-c3cnc(N)c(OCc4cccc(Oc5ccccc5)c4)c3)cc2)CC(C)N1 (stereo not shown)
34 | 15% | CC1CN(C(=O)c2ccc(-c3cnc(N)c(OCc4ccc(C(=O)N5CCN(Cc6ccccc6)CC5)cc4)c3)cc2)CC(C)N1 (stereo not shown)
35 | 18% | CC1CN(C(=O)c2ccc(-c3cnc(N)c(OCc4cccc(C(=O)NCCc5ccccn5)c4)c3)cc2)CC(C)N1 (stereo not shown)
36 | 18% | CC1CN(C(=O)c2ccc(-c3cnc(N)c(OCc4cccc(C(=O)NC5CCN(Cc6ccccc6)C5)c4)c3)cc2)CC(C)N1 (stereo not shown)
37 | 19% | CC1CN(C(=O)c2ccc(-c3cnc(N)c(OCc4ccc(C(=O)NCCc5ccccn5)cc4)c3)cc2)CC(C)N1 (stereo not shown)
38 | 12% | CC1CN(C(=O)c2ccc(-c3cnc(N)c(OCc4ccc(C(=O)NCCN5CCCC5)cc4)c3)cc2)CC(C)N1 (stereo not shown)
39 | 10% | CCN1CCCC1CNC(=O)c1cccc(COc2cc(-c3ccc(C(=O)N4CC(C)NC(C)C4)cc3)cnc2N)c1 (stereo not shown)

Same assay, conditions: cells prefixed Ki; read-out: Met Ki

Row | Ki | SMILES
40 | 0.61 µM | CC(Oc1cc(C#CC(C)(C)NC(=O)N2CCN(C)CC2)cnc1N)c1c(Cl)ccc(F)c1Cl (stereo not shown) [Example I-432, 4-Methyl-piperazine-1-carboxylic acid (3-{6-amino-5-[1-(2,6-dichloro-3-fluoro-phenyl)-ethoxy]-pyridin-3-yl}-1,1-dimethyl-prop-2-ynyl)-amide]
41 | 1.5 µM | CC(Oc1cc(C#CC(C)(C)NC(=O)N2C[C@@H](C)N[C@@H](C)C2)cnc1N)c1c(Cl)ccc(F)c1Cl (stereo partly drawn) [Example I-433, (3R,5S)-3,5-Dimethyl-piperazine-1-carboxylic acid (3-{6-amino-5-[1-(2,6-dichloro-3-fluoro-phenyl)-ethoxy]-pyridin-3-yl}-1,1-dimethyl-prop-2-ynyl)-amide]
42 | 1.22 µM | CC(Oc1cc(C#CC(C)(C)NC(=O)N2CCC[C@@H]2CN2CCCC2)cnc1N)c1c(Cl)ccc(F)c1Cl (stereo partly drawn) [Example I-434, (R)-2-Pyrrolidin-1-ylmethyl-pyrrolidine-1-carboxylic acid (3-{6-amino-5-[1-(2,6-dichloro-3-fluoro-phenyl)-ethoxy]-pyridin-3-yl}-1,1-dimethyl-prop-2-ynyl)-amide]
43 | 1.58 µM | CC(Oc1cc(C#CC(C)(C)NC(=O)N2CCC[C@H]2CN2CCCC2)cnc1N)c1c(Cl)ccc(F)c1Cl (stereo partly drawn) [Example I-435, (S)-2-Pyrrolidin-1-ylmethyl-pyrrolidine-1-carboxylic acid (3-{6-amino-5-[1-(2,6-dichloro-3-fluoro-phenyl)-ethoxy]-pyridin-3-yl}-1,1-dimethyl-prop-2-ynyl)-amide]
44 | 1.11 µM | CC(Oc1cc(C#CC(C)(C)NC(=O)NCCN2CCOCC2)cnc1N)c1c(Cl)ccc(F)c1Cl (stereo not shown) [Example I-436, 1-(3-{6-Amino-5-[1-(2,6-dicloro-3-fluoro-phenyl)-ethoxy]-pyridin-3-yl}-1,1-dimethyl-prop-2-ynyl)-3-(2-morpholin-4-yl-ethyl)-urea]
45 | 0.61 µM | CC(Oc1cc(C#CC(C)(C)NC(=O)NCCN2CCCC2)cnc1N)c1c(Cl)ccc(F)c1Cl (stereo not shown) [Example I-437, 1-(3-{6-Amino-5-[1-(2,6-dicloro-3-fluoro-phenyl)-ethoxy]-pyridin-3-yl}-1,1-dimethyl-prop-2-ynyl)-3-(2-pyrrolidin-1-yl-ethyl)-urea]
46 | 0.72 µM | CC(Oc1cc(C#CC(C)(C)NC(=O)N2CCC(N3CCCC3)CC2)cnc1N)c1c(Cl)ccc(F)c1Cl (stereo not shown) [Example I-438, 4-Pyrrolidin-1-yl-pipendine-1-carboxylic acid (3-{6-amino-5-[1-(2,6-dichloro-3-fluoro-phenyl)-ethoxy]-pyridin-3-yl}-1,1-dimethyl-prop-2-ynyl)-amide]
47 | 0.46 µM | CC(Oc1cc(C#CC(=O)NC2CCCCC2)cnc1N)c1c(Cl)ccc(F)c1Cl (stereo not shown) [Example I-439, 3-{6-Amino-5-[1-(2,6-dichloro-3-fluoro-phenyl)-ethoxy]-pyridin-3-yl}-propynoic acid cyclohexylamide]
48 | 0.43 µM | CC(C)NC(=O)C#Cc1cnc(N)c(OC(C)c2c(Cl)ccc(F)c2Cl)c1 (stereo not shown) [Example I-440, 3-{6-Amino-5-[1-(2,6-dichloro-3-fluoro-phenyl)-ethoxy]-pyridin-3-yl}-propynoic acid isopropylamide]
49 | 1.06 µM | CC(Oc1cc(C#CC(C)(C)N)ccc1N)c1c(Cl)ccc(F)c1Cl (stereo not shown) [Example I-441, 4-(3-Amino-3-methyl-but-1-ynyl)-2-[1-(2,6-dichloro-3-fluoro-phenyl)-ethoxy]-phenylamine]
50 | 0.68 µM | C=Cc1cnc(N)c(OC(C)c2c(Cl)ccc(F)c2Cl)c1 (stereo not shown) [Example I-461, 3-[1-(2,6-Dichloro-3-fluoro-phenyl)-ethoxy]-5-vinyl-pyridin-2-ylamine]
51 | 0.34 µM | CC(Oc1cc(-c2cnn(CCN3CCCC3)c2)cnc1N)c1c(Cl)ccc(F)c1Cl (stereo not shown) [Example I-465, 3-[1-(2,6-Dichloro-3-fluoro-phenyl)-ethoxy]-5-[1-(2-pyrrolidin-1-yl-ethyl)-1H-pyrazol-4-yl]-pyridin-2-ylamine]
52 | 0.47 µM | CC(Oc1cc(-c2cnn(CCN(C(C)C)C(C)C)c2)cnc1N)c1c(Cl)ccc(F)c1Cl (stereo not shown) [Example I-466, 3-[1-(2,6-Dichloro-3-fluoro-phenyl)-ethoxy]-5-[1-(2-diisopropylamino-ethyl)-1H-pyrazol-4-yl]-pyridin-2-yl amine]
53 | 0.083 µM | CC(Oc1cc(-c2cnn(CCN3CCOCC3)c2)cnc1N)c1c(Cl)ccc(F)c1Cl (stereo not shown) [Example I-467, 3-[1-(2,6-Dichloro-3-fluoro-phenyl)-ethoxy]-5-[1-(2-morpholin-4-yl-ethyl)-1H-pyrazol-4-yl]-pyridin-2-ylamine]
54 | 12.1 µM | CC(C)Oc1c(F)cccc1COc1cc(Br)cnc1N [Example I-472, 5-Bromo-3-(3-fluoro-2-isopropoxy-benzyloxy)-pyridin-2-ylamine]
55 | 12.7 µM | CC(C)Oc1c(F)cccc1COc1cc(-c2ccc(C(=O)N3C[C@@H](C)N[C@@H](C)C3)cc2)cnc1N [Example I-473, {4-[6-Amino-5-(3-fluoro-2-isopropoxy-benzyloxy)-pyridin-3-yl]-phenyl}-((3R,5S)-3,5-dimethyl-piperazin-1-yl)-methanone]
